Measured values taken from patent US20120059021A1, “COMPOSITIONS AND METHODS FOR TREATING CANCER AND METHODS FOR PREDICTING A RESPONSE TO SUCH TREATMENTS” (UNIVERSITY OF WASHINGTON, priority 2008, published 2012).
Entries after “also recorded” stand apart in the source; their conditions may differ. Where a SMILES comes first, the peptide text is derived from it. The star is where a group is joined. Cbz = O=C(OCc1ccccc1)*; CH2F = FC*

Columns and labels:
[1] = test system: Wnt/β-catenin signaling; test: β-catenin activated reporter (BAR) luciferase assay in A375 melanoma cells; settings: for Wnt/β-catenin signaling (BAR activity): A375, in the presence of WNT3A
Description: By way of non-limiting example, Wnt/β-catenin signaling can be measured using the BAR reporter described in detail elsewhere herein. Briefly, the BAR (β-catenin activated reporter) is a lentiviral plasmid which provides for expression of luciferase in response to Wnt/β-catenin signaling. Output can be measured with an automated luminescence plate reader.
Detailed information on the β-catenin activated reporter (BAR) has been previously described (23). Briefly, the β-catenin activated reporter (pBAR) is a lentiviral plasmid that contains 12 TCF/LEF binding sites (5′-[sequence]-3′) each separated by distinct 5 base-pair linkers upstream of a minimal promoter and the firefly luciferase open reading frame. The reporter also contains a separate PGK promoter that constitutively drives the expression of a puromycin resistance gene for mammalian cell selection. […] PLX4720 was purchased from Symansis (Australia cat# SY-PLX4720). CHIR99021 was purchased from Axon MedChem (Gronigen, Netherlands catalog #Axon1386). Z-VAD-FMK was purchased from R&D systems (Minneapolis, Minn. cat# FMKSP01).
Low throughput BAR reporter assays. Cells were plated in 96-well plates.

[2] = test system: ppERK1/2; test: Immunoblot for dual-phosphorylated ERK1/2 in melanoma cells; assay type: cell-based, human; settings: for dual-phosphorylated ERK1/2 (ppERK1/2): A375
Description: By way of non-limiting example, inhibition of ERK signaling can be measured by determining the level of dual-phosphorylated ERK1/2 (ppERK1/2) as described in detail elsewhere herein. In brief, the level of ppERK1/2 can be detected by immunoblot assay.

[3] = test system: GSK3β; test: Immunoblot for activating auto-phosphorylation of GSK3β in A375 cells; assay type: cell-based, human
[4] = test system: A375 cells; test: Immunoblot of apoptosis markers (cleaved caspase-3, cleaved PARP1) in A375 cells; assay type: cell-based, human
[5] = test system: AXIN1; test: Immunoblot of steady-state AXIN1 levels in melanoma cells; assay type: cell-based, human; settings: for levels of AXIN1 following treatment with WNT3A and PLX4720: A375, 10 μM, 8 hours, WNT3A CM and 2 μM PLX4720
[6] = test system: ERK1/2 phosphorylation; test: ERK1/2 phosphorylation in human epidermal melanocytes; assay type: cell-based; settings: HEMs
Description: Cell Lines. The human melanoma cell lines A375, A2058 and Me1624 were obtained from Cassian Yee (Fred Hutchinson Cancer Research Institute; Seattle, Wash.). The human melanoma cell lines COLO-829, SKMEL28, SKMEL5 were purchased from ATCC (Manassas, Va.). Human Epidermal Melanocytes, adult, lightly pigmented donor, (HEMa-LP) (C0245C) were purchased from Invitrogen (Carlsbad, Calif.). Stable BAR cell lines were generated as previously described (23). BAR luciferase cell lines were also infected with a lentivirus carrying Renilla luciferase driven by a constitutive EFlalpha promoter.
Cell Culture. The human melanoma lines A375, A2058 were cultured in DMEM supplemented with 5% FBS and 1% antibiotic. The human melanoma lines SK-MEL-5 and SK-MEL-28 were grown in EMEM supplemented with 10% FBS and 1% antibiotic. The human melanoma lines COLO-829 and MEL-624 were grown in RPMI supplemented with 10% FBS and 1% antibiotic HEMa-LP cells were cultured in medium 254 supplemented with 1% HMGS and 1% antibiotic (Invitrogen Carlsbad, Calif.). Synthetic siRNAs were transfected into cultured cells at a final concentration of 20 nM using RNAiMAX (Invitrogen; Grand Island, N.Y.).

[7] = test system: A375; test: qPCR of endogenous Wnt target gene AXIN2, A375; assay type: cell-based, human; settings: A375, stimulated Wnt/β-catenin signaling
Description: RNA purification and qRT-PCR analysis. RNA was purified using the RNeasy kit following the manufacturer's protocol (Qiagen; Maryland, Md.). cDNA was synthesized using RevertAid™ M-MuLV Reverse Transcriptase (Fermentas; Ontario, CAN). Light Cycler FastStart DNA Master SYBR Green1 (Roche; Mannheim, Germany) was used for real-time PCR as previously described (53). Quantitative PCR results presented in the manuscript are averages of a minimum of three biologic replicates.

[8] = test system: Wnt/β-catenin signaling; test: WNT3A-mediated reporter activity in primary melanocytes; assay type: cell-based, human; settings: HEMs
[9] = test system: β-catenin; test: Immunoblot for β-catenin phosphorylation at Ser33/Ser37/Thr41 in A375 cells; assay type: cell-based, human
[10] = test system: BAD and Bim (BCL2L11); test: Immunoblot of BH3-only proteins BAD and Bim in A375 cells; assay type: cell-based, human; settings: A375, addition of Z-VAD-FMK, 24 hours
[11] = XAV939 in the presence of U0126 or PLX4720

## Cn1cnc2c(F)c(Nc3ccc(Br)cc3Cl)c(C(=O)NOCCO)cc21 [AZD6244, 6-(4-Bromo-2-chloro-phenylamino)-7-fluoro-3-methyl-3H-benzoimidazole-5-carboxylic acid (2-hydroxy-ethoxy)-amide]
[1]
  Wnt/β-catenin signaling (BAR activity): synergistically enhanced Wnt/β-catenin activation
[2]
  dual-phosphorylated ERK1/2 (ppERK1/2): inhibition of ppERK1/2

## Cc1c[nH]c(-c2cnc(NCCNc3ccc(C#N)cn3)nc2-c2ccc(Cl)cc2Cl)n1 [CHIR99021, 6-[[2-[[4-(2,4-dichlorophenyl)-5-(5-methyl-1H-imidazol-2-yl)-2-pyrimidinyl]amino]ethyl]amino]-3-pyridinecarbonitrile]
[3]
  activating auto-phosphorylation of GSK3B: loss of the activating auto-phosphorylation at Tyr216
[4]; A375, 5 μM CHIR99021 and 2 μM PLX4720, 36 hours
  apoptosis (cleaved caspase-3 immunoblot): enhanced apoptosis in combination with PLX4720

## CC(C)C[C@@H](C=O)NC(=O)[C@H](CC(C)C)NC(=O)[C@H](CC(C)C)NC(=O)OCc1ccccc1 [MG132] (Cbz-Leu-Leu-Leu-aldehyde)
[5]
  levels of AXIN1 following treatment with WNT3A and PLX4720: increased the levels of AXIN1

## N#CC(=C(/N)Sc1ccccc1N)/C(C#N)=C(\N)Sc1ccccc1N [U0126, 1,4-diamino-2,3-dicyano-1,4-bis [2-aminophenylthio]butadiene]
[6]
  ERK1/2 phosphorylation: inhibits ERK1/2 phosphorylation in a dose-dependent manner
[1]
  Wnt/β-catenin signaling (BAR activity): synergistically enhanced Wnt/β-catenin activation; also recorded: dose-dependent increase in stimulated Wnt/β-catenin signaling
[2]
  dual-phosphorylated ERK1/2 (ppERK1/2): inhibition of ppERK1/2
[2]; six established melanoma lines harboring the BRAF^V600E mutation
  ERK1/2 phosphorylation: inhibition of ERK1/2 phosphorylation
[7]
  levels of the endogenous Wnt/β-catenin target gene AXIN2: dose-dependent increase
[8]
  Wnt/β-catenin signaling: inhibited Wnt/β-catenin signaling
[3]
  activating auto-phosphorylation of GSK3B: loss of the activating auto-phosphorylation of GSK3B at Tyr117
[5]; absence of rWnt3A
  steady-state levels of AXIN1: slightly decreased
[5]; presence of rWnt3A
  steady-state levels of AXIN1: markedly diminished
[9]
  phosphorylation of β-catenin at GSK3β sites (Ser33/Ser37/Thr41): decreased phosphorylation of β-catenin

## Oc1nc(-c2ccc(C(F)(F)F)cc2)nc2c1CSCC2 [XAV939]
[1]; [11]
  reversal of enhancement of Wnt/β-catenin signaling by MAPK inhibition: unable to completely reverse the enhancement of Wnt/β-catenin signaling by MAPK inhibition
[5]; XAV939, absence and presence of rWnt3A
  steady-state levels of AXIN1: increases steady-state levels of AXIN1
[5]; [11]
  AXIN1 protein levels: elevate AX1N1 protein levels to above baseline levels

## COC(=O)C[C@H](NC(=O)[C@H](C)NC(=O)[C@@H](NC(=O)OCc1ccccc1)C(C)C)C(=O)CF [Z-VAD-FMK] (Cbz-Val-Ala-Asp(OMe)-CH2F)
[1]; A375, Z-VAD-FMK with WNT3A and 2 μM PLX4720, 24 hours
  Wnt/β-catenin activation as measured by BAR: augments Wnt/β-catenin activation
[5]; A375, Z-VAD-FMK, 24 hours
  loss of steady-state AXIN1 with WNT3A and PLX4720: did not affect the loss of steady-state AXIN1
[4]; A375, Z-VAD-FMK
  apoptosis with WNT3A and PLX4720: able to inhibit apoptosis
[4]; A375, addition of Z-VAD-FMK, 24 hours
  PARP1 cleavage induced by WNT3A and PLX4720: completely abolished
[10]
  increase in BimL and BimS with WNT3A and PLX4720: not blocked

## CCN(CC)CCCC(C)Nc1ccnc2cc(Cl)ccc12 (stereo not drawn) [chloroquine]
[5]
  levels of AXIN1 following treatment with WNT3A and PLX4720: not
